Results reported in PubChem BioAssay AID248 (DTP/NCI, 2004).
Values joined by “and” are separate entries in the source; they are usually repeats but may differ in a detail not shown here. Equal entries are not always repeated. Inconclusive results and toxic doses are left out. No stated cut-off is given here; in the data, active means T/C of 150% or more; inactive means T/C below 125%.

Test system: L1210 leukemia ip in BDF1 mice, survival T/C
Experiment: NCI In Vivo Anticancer Drug Screen. Data for tumor model L1210 Leukemia (intraperitoneal) in B6D2F1 (BDF1) mice
Settings: endpoint: mean survival time, higher = longer survival
How it was run: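 Mice bearing the transplanted tumor received compound or vehicle. Survival of the treated group was divided by that of the vehicle-treated control group to give the ratio.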

[1] = dose: 12.5 mg/kg/injection, schedule: Q01DX001 (ip), vehicle: saline
[2] = dose: 25.0 mg/kg/injection, schedule: Q01DX001 (ip), vehicle: saline
[3] = dose: 25.0 mg/kg/injection, schedule: Q04DX002 (ip), vehicle: saline
[4] = dose: 25.0 mg/kg/injection, schedule: Q04DX003 (ip), vehicle: saline
[5] = dose: 100.0 mg/kg/injection, schedule: Q01DX001 (ip), vehicle: saline
[6] = dose: 100.0 mg/kg/injection, schedule: Q01DX009 (ip), vehicle: Klucel (hydroxypropylcellulose) (HPC)
[7] = dose: 200.0 mg/kg/injection, schedule: Q01DX009 (ip), vehicle: Klucel (hydroxypropylcellulose) (HPC)
[8] = dose: 400.0 mg/kg/injection, schedule: Q01DX009 (ip), vehicle: Klucel (hydroxypropylcellulose) (HPC)
[9] = dose: 200.0 mg/kg/injection, schedule: Q01DX001 (ip), vehicle: saline
[10] = dose: 400.0 mg/kg/injection, schedule: Q01DX001 (ip), vehicle: saline
[11] = dose: 100.0 mg/kg/injection, schedule: Q04DX003 (ip), vehicle: saline with Tween-80
[12] = dose: 200.0 mg/kg/injection, schedule: Q04DX003 (ip), vehicle: saline with Tween-80
[13] = dose: 50.0 mg/kg/injection, schedule: Q04DX003 (ip), vehicle: saline
[14] = dose: 100.0 mg/kg/injection, schedule: Q04DX003 (ip), vehicle: Klucel (hydroxypropylcellulose) (HPC)
[15] = dose: 200.0 mg/kg/injection, schedule: Q04DX003 (ip), vehicle: Klucel (hydroxypropylcellulose) (HPC)
[16] = dose: 400.0 mg/kg/injection, schedule: Q04DX003 (ip), vehicle: Klucel (hydroxypropylcellulose) (HPC)
[17] = dose: 50.0 mg/kg/injection, schedule: Q01DX001 (ip), vehicle: saline
[18] = dose: 50.0 mg/kg/injection, schedule: Q01DX009 (ip), vehicle: saline with Tween-80
[19] = dose: 100.0 mg/kg/injection, schedule: Q01DX009 (ip), vehicle: saline with Tween-80
[20] = dose: 75.0 mg/kg/injection, schedule: Q01DX001 (ip), vehicle: saline
[21] = dose: 150.0 mg/kg/injection, schedule: Q01DX001 (ip), vehicle: saline
[22] = dose: 300.0 mg/kg/injection, schedule: Q01DX001 (ip), vehicle: saline

Measured: T/C

Cc1cc(CSC2=NCCCN2)c(CSC2=NCCCN2)cc1C
inactive: dose: 6.25 mg/kg/injection, schedule: Q01DX001 (ip), vehicle: saline 96 % of control | dose: 6.25 mg/kg/injection, schedule: Q01DX009 (ip), vehicle: saline 100 % of control and 111 % of control | dose: 6.25 mg/kg/injection, schedule: Q04DX002 (ip), vehicle: saline with Tween-80 94 % of control | dose: 6.25 mg/kg/injection, schedule: Q04DX003 (ip), vehicle: saline 91 % of control | [1] 97 % of control | dose: 12.5 mg/kg/injection, schedule: Q01DX009 (ip), vehicle: saline 102 % of control and 92 % of control | dose: 12.5 mg/kg/injection, schedule: Q04DX002 (ip), vehicle: saline with Tween-80 97 % of control | dose: 12.5 mg/kg/injection, schedule: Q04DX003 (ip), vehicle: saline 90 % of control | [2] 99 % of control and 108 % of control | dose: 25.0 mg/kg/injection, schedule: Q01DX009 (ip), vehicle: saline 96 % of control and 101 % of control | dose: 25.0 mg/kg/injection, schedule: Q04DX002 (ip), vehicle: saline with Tween-80 100 % of control | [3] 87 % of control | [4] 89 % of control | [5] 93 % of control

O=C(Nc1ccccc1F)Oc1ccc(F)cc1
inactive: dose: 100.0 mg/kg/injection, schedule: Q01DX001 (ip), vehicle: Klucel (hydroxypropylcellulose) (HPC) 97 % of control | [6] 102 % of control and 91 % of control | dose: 100.0 mg/kg/injection, schedule: Q04DX002 (ip), vehicle: Klucel (hydroxypropylcellulose) (HPC) 101 % of control and 89 % of control | dose: 200.0 mg/kg/injection, schedule: Q01DX001 (ip), vehicle: Klucel (hydroxypropylcellulose) (HPC) 97 % of control | [7] 98 % of control and 109 % of control | dose: 200.0 mg/kg/injection, schedule: Q04DX002 (ip), vehicle: Klucel (hydroxypropylcellulose) (HPC) 96 % of control and 98 % of control | dose: 400.0 mg/kg/injection, schedule: Q01DX001 (ip), vehicle: Klucel (hydroxypropylcellulose) (HPC) 96 % of control | [8] 98 % of control and 107 % of control | dose: 400.0 mg/kg/injection, schedule: Q04DX002 (ip), vehicle: Klucel (hydroxypropylcellulose) (HPC) 101 % of control and 104 % of control

O=CO.[Pb]
inactive: [5] 90 % of control | [9] 92 % of control | [10] 98 % of control

Cc1cc2oc(=O)cc(C)c2c(=O)o1
inactive: dose: 100.0 mg/kg/injection, schedule: Q01DX001 (ip), vehicle: carboxymethylcellulose (CMC) 97 % of control | dose: 200.0 mg/kg/injection, schedule: Q01DX001 (ip), vehicle: carboxymethylcellulose (CMC) 92 % of control

Nc1nc(=S)c2[nH]c(N=Nc3ccc(S(=O)(=O)Nc4ncccn4)cc3)nc2[nH]1
active: dose: 19.0 mg/kg/injection, schedule: Q04DX003 (ip), vehicle: Klucel (hydroxypropylcellulose) (HPC) 164 % of control | dose: 29.0 mg/kg/injection, schedule: Q04DX003 (ip), vehicle: Klucel (hydroxypropylcellulose) (HPC) 164 % of control | [11] 185 % of control | [12] 151 % of control
inactive: [6] 96 % of control | [7] 97 % of control

CC1(C)CC[N+]1(C)C
inactive: dose: 11.0 mg/kg/injection, schedule: Q04DX003 (ip), vehicle: saline 98 % of control and 104 % of control | dose: 12.0 mg/kg/injection, schedule: Q04DX003 (ip), vehicle: saline 96 % of control | dose: 16.0 mg/kg/injection, schedule: Q04DX003 (ip), vehicle: saline 94 % of control and 107 % of control | [4] 94 % of control and 104 % of control | dose: 40.0 mg/kg/injection, schedule: Q04DX003 (ip), vehicle: saline 102 % of control | [13] 110 % of control | dose: 60.0 mg/kg/injection, schedule: Q04DX003 (ip), vehicle: saline 92 % of control

CC(=O)Nc1ccc(S(=O)(=O)NC(C(=O)O)C(=O)O)cc1
inactive: [5] 100 % of control | [9] 103 % of control | [10] 103 % of control

O=C1CCC(NC(=O)C(F)(F)F)C(=O)O1 (stereo unspecified)
inactive: [14] 101 % of control | [15] 94 % of control | [16] 92 % of control

CC(=O)c1ccccc1OCC(O)CN1CCN(c2cccc(C(F)(F)F)c2)CC1 (stereo unspecified)
inactive: [11] 106 % of control | [12] 108 % of control | dose: 400.0 mg/kg/injection, schedule: Q04DX003 (ip), vehicle: saline with Tween-80 108 % of control

CCOC(=O)C1CCN(S(=O)(=O)c2ccc(C)cc2)c2cc(Cl)ccc2C1=O (stereo unspecified)
inactive: [6] 93 % of control | [14] 96 % of control | [7] 93 % of control | [15] 93 % of control | [8] 101 % of control | [16] 94 % of control

CC(=O)c1ccc(N2CCN(C)CC2)cc1
inactive: [17] 100 % of control | [5] 102 % of control

c1ccc(C2=NCCCO2)cc1
inactive: dose: 12.5 mg/kg/injection, schedule: Q01DX009 (ip), vehicle: saline with Tween-80 100 % of control | dose: 25.0 mg/kg/injection, schedule: Q01DX009 (ip), vehicle: saline with Tween-80 103 % of control | [18] 102 % of control | [13] 91 % of control | [19] 102 % of control | dose: 100.0 mg/kg/injection, schedule: Q04DX003 (ip), vehicle: saline 96 % of control

CC(=O)Nc1ncc([N+](=O)[O-])s1
inactive: [18] 97 % of control | [19] 98 % of control | dose: 200.0 mg/kg/injection, schedule: Q01DX009 (ip), vehicle: saline with Tween-80 104 % of control

Cc1ccc(N2C(N)=NC(N)=NC2(C)C)cc1
inactive: [1] 100 % of control | [2] 100 % of control

Clc1cc(Cl)c2c(c1)Cc1cc(Cl)cc(N=Cc3ccc4c(c3)OCO4)c1-2
inactive: [6] 97 % of control | [14] 97 % of control | [7] 99 % of control | [15] 97 % of control | [16] 104 % of control

CCOC(=O)c1cncc(C(=O)OCC)c1
inactive: dose: 50.0 mg/kg/injection, schedule: Q01DX009 (ip), vehicle: Klucel (hydroxypropylcellulose) (HPC) 100 % of control | [6] 100 % of control | [14] 101 % of control | [7] 104 % of control | [15] 92 % of control | [8] 112 % of control | [16] 100 % of control

CCOC(=O)C1=C(O)C(=O)C(C(=O)OCC)C1 (stereo unspecified)
inactive: [20] 86 % of control | [21] 106 % of control | [22] 90 % of control

CCCCCC(=O)O
inactive: dose: 100.0 mg/kg/injection, schedule: Q01DX009 (ip), vehicle: saline 100 % of control | dose: 200.0 mg/kg/injection, schedule: Q01DX009 (ip), vehicle: saline 98 % of control | dose: 400.0 mg/kg/injection, schedule: Q01DX009 (ip), vehicle: saline 89 % of control

O=C(C[n+]1ccccc1)c1ccccc1
inactive: [3] 98 % of control | dose: 50.0 mg/kg/injection, schedule: Q04DX002 (ip), vehicle: saline 95 % of control | dose: 100.0 mg/kg/injection, schedule: Q04DX002 (ip), vehicle: saline 98 % of control

NC(=O)Cc1ccc(C(C2=C(O)c3ccccc3C(=O)C2=O)C2=C(O)c3ccccc3C(=O)C2=O)cc1
inactive: [20] 96 % of control | [21] 101 % of control | [22] 91 % of control

C=C1C(=O)OC2CC3(C)C(O)CCC(=C)C3C(OC(C)=O)C12 (stereo unspecified) (tested in a mixture with another compound)
inactive: [5] 104 % of control

CCN(CC)Cc1ccc(C2=NCCO2)cc1
inactive: [17] 91 % of control | [5] 94 % of control | [9] 98 % of control

COc1nc(C)c(C)n[n+]1C
inactive: dose: 75.0 mg/kg/injection, schedule: Q01DX001 (ip), vehicle: saline with Tween-80 107 % of control | dose: 150.0 mg/kg/injection, schedule: Q01DX001 (ip), vehicle: saline with Tween-80 104 % of control | dose: 300.0 mg/kg/injection, schedule: Q01DX001 (ip), vehicle: saline with Tween-80 111 % of control

O=S(=O)(Nc1ccc(NS(=O)(=O)c2ccccc2)cc1)c1ccccc1
inactive: dose: 100.0 mg/kg/injection, schedule: Q01DX009 (ip), vehicle: saline sonified 97 % of control | [14] 93 % of control | dose: 200.0 mg/kg/injection, schedule: Q01DX009 (ip), vehicle: saline sonified 104 % of control | [15] 98 % of control | dose: 400.0 mg/kg/injection, schedule: Q01DX009 (ip), vehicle: saline sonified 98 % of control | [16] 90 % of control
